Measured values from the supplement of paper PMC10307832.

What was measured:
Assay in all cases: relative viability (nuclei count vs DMSO), 5 days (fraction); higher = more cells survive
[1] = compound: CC1=C(CC(=O)O)c2cc(F)ccc2/C1=C\c1ccc([S+](C)[O-])cc1 [Sulindac]
Outline: (§1)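 A plate was accepted only when its control CV was below 25% and the cells had doubled at least once. Viability is defined from nuclear counts as treated wells divided by vehicle wells, with the median taken across plates. That median covers lung cancer cell lines grown in 1536-well plates, dosed by pinning at five √10-spaced library-drug concentrations, and counted in MetaXpress from 4× Hoechst images after 5 days.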

[2] = compound: CN[C@@H]1C[C@H]2O[C@@](C)([C@@H]1OC)n1c3ccccc3c3c4c(c5c6ccccc6n2c5c31)C(=O)NC4 [Staurosporine]
Outline: as §1

[3] = compound: O=c1[nH]cc(F)c(=O)[nH]1 [5-Fluorouracil]
Outline: as §1

Cell Line	relative viability ([1]; 0.08 µM)	relative viability ([1]; 0.253 µM)	relative viability ([1]; 0.8 µM)	relative viability ([1]; 2.53 µM)	relative viability ([1]; 8 µM)	relative viability ([2]; 0.005 µM)	relative viability ([2]; 0.01581 µM)	relative viability ([2]; 0.05 µM)	relative viability ([2]; 0.1581 µM)	relative viability ([2]; 0.5 µM)	relative viability ([3]; 0.02 µM)	relative viability ([3]; 0.2 µM)	relative viability ([3]; 0.6325 µM)	relative viability ([3]; 2 µM)
COR-L23	1.41	1.08	0.7	1.01	1.22	0.765	0.443	0.289	0.123	0.0808	1	0.995	0.476	0.278
NCI-H2009	1.1	1.08	0.972	1	1.11	0.452	0.227	0.231	0.167	0.109	1.1	1.02	0.82	0.652
NCI-H3122	1.04	1.03	0.949	0.962	1.08	1.04		0.893	0.255	0.357	1	0.848	0.39	0.241
NCI-H2228	1.2	1.08	0.916	1.03	1.18	0.735	0.471	0.407	0.145	0.107	0.976	1.02	0.75	0.458
NCI-H1944	0.997	1.03	0.908	0.904	1.11	0.983	0.699	0.567	0.353	0.246	0.91	0.905	0.293	0.195
NCI-H1648	0.953	0.793	0.561	0.923	0.942	0.807	0.281	0.244	0.324	0.274	0.922	0.871	0.56	0.354
NCI-H358	0.918	1.01	0.74	0.999	1.16	1.03	0.326	0.203	0.117	0.104	1	1.05	0.882	0.584
NCI-H1755	1.1	1.09	1.01	1.08	1.06	0.829	0.47	0.319	0.191	0.213	1.02	0.994	0.356	0.304
A-427	1.16	1.01	0.894	1	1.15	0.799	0.236	0.337	0.146	0.139	0.939	1.03	0.9	0.575
PC-14	1.11	1.14	0.786	1.08	1.18	0.691	0.404	0.152	0.0788	0.0565	1.02	1.13	0.898	0.552
LCLC-97TM1	1.05	1.04	0.925	0.813	1.17	1.02	0.282	0.27	0.265	0.212	0.988	1.07	0.729	0.533
BEN	1.13	0.963	0.853	0.967	1.16	1.12	0.905	0.516	0.396	0.237	0.912	0.865	0.68	0.675
NCI-H2085	0.919	1	0.891	0.971	1.04	0.833	0.586	0.624	0.361	0.285	0.931	1.02	0.989	0.813
LC-2-ad	1.19	1.03	0.845	0.978	1.1	0.929	0.256	0.381	0.17	0.129	0.987	0.946	0.53	0.298
ABC-1	1.07	0.871	0.981	0.838	1.3	0.42	0.283	0.262	0.172	0.129	1.04	1.03	0.847	0.788
NCI-H661	1.13	1.05	0.989	1	0.965	1.02	0.722	0.555	0.364	0.238	0.998	1.04	0.954	0.992
NCI-H1792	1.19	1.08		1.07	1.09	0.536	0.251	0.235	0.173	0.177	0.975	0.851	0.278	0.344
EPLC-272H	0.97	0.797	0.762	0.857	1.18	0.781	0.192	0.247	0.106	0.0993	0.732	0.706	0.397	0.262
NCI-H1437	1.14	1.02	0.857	1.01	1.17	0.918	0.705	0.704	0.306	0.153	0.626	0.289	0.25	0.216
EKVX	1.05	1.01	0.832	0.941	1.08	0.758	0.417	0.351	0.256	0.146	0.835	0.312		0.176
NCI-H1651	1.04	1.04	0.771	1.01	1.02	1.02	0.751	0.548	0.357	0.285	1.04	0.896	0.504	0.458
HCC-15	1.14	1.07	0.843	0.986	1.13	0.92		0.636	0.137	0.119	1.04	1.11	0.711	0.413
LCLC-103H	1.08	1.09	0.902	0.955	1.06	0.973	0.336	0.393	0.233	0.234	1.05	0.976	0.889	0.577
NCI-H2347	1.01	1.06	0.759	1.03	1.11	0.706	0.524	0.457	0.391	0.376	0.928	0.834	0.49	0.448
NCI-H1915	1.13	1.09	0.878	0.965	1.03	0.944	0.119	0.406	0.18	0.118	0.818	0.986	0.956	0.779
